Earlier results in patent publication US20040136904A1, “Dry powder compositions comprising labelled particles for inhalation” (priority 2001, published 2004).

Details: in vivo

[Na+].[O]=[Tc](=[O])(=[O])[O-] [sodium pertechnetate]
time in which 50% is removed from the surface of the lung: ~10 min
